According to patent US20060069132A1, “Azolecarboxamide herbicides” (priority 2004, published 2006):

What was measured:
[1] = tested on: velvetleaf; assay: Test A pre-/postemergence herbicide test; type: in vivo, Abutilon theophrasti
Outline: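 Visual injury scores on a 0–100 scale (100 = complete control) taken about ten days post-treatment in greenhouse against untreated controls; dash means no result. Treatments: preemergence soil spray and postemergence spray to runoff on one- to two-leaf plants 2 to 10 cm tall, surfactant-containing formulation.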

[2] = tested on: rice; assay: Test B pre-/postemergence herbicide test; type: in vivo, Oryza sativa; settings: preemergence
Outline: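 Test chemicals in a non-phytotoxic solvent mixture with surfactant were applied preemergence to seeded species and postemergence to plants 2-18 cm tall (1- to 4-leaf stage); rice and barnyardgrass were also tested in a flooded paddy at the 2-leaf stage. Visual rating versus controls after 13-15 days in greenhouse, scale 0 (no effect) to 100 (complete control).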

[3] = tested on: large crabgrass; assay: Test C pre-/postemergence herbicide test; type: in vivo, Digitaria sanguinalis; settings: for Crabgrass, Large plant response rating: 500 g ai/ha
Outline: (§1)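 Visual ratings on a 0–100 scale (100 = complete control) made versus untreated controls after 12 to 14 greenhouse days. Test chemicals, formulated in surfactant-containing non-phytotoxic solvent, applied preemergence to planted seeds or postemergence to 1- to 4-leaf plants (2 to 18 cm).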

[4] = tested on: woolly cupgrass; assay: Test C pre-/postemergence herbicide test; type: in vivo, Eriochloa villosa; settings: for Cupgrass, Woolly plant response rating: 500 g ai/ha
Outline: as §1

[5] = tested on: giant foxtail; assay: Test C pre-/postemergence herbicide test; type: in vivo, Setaria faberi; settings: for Foxtail, Giant plant response rating: 500 g ai/ha
Outline: as §1

[6] = tested on: lambsquarters; assay: Test C pre-/postemergence herbicide test; type: in vivo, Chenopodium album; settings: for Lambsquarters plant response rating: 500 g ai/ha
Outline: as §1

[7] = tested on: pigweed; assay: Test C pre-/postemergence herbicide test; type: in vivo, Amaranthus retroflexus; settings: for Pigweed plant response rating: 500 g ai/ha
Outline: as §1

[8] = tested on: common (oilseed) sunflower; assay: Test C pre-/postemergence herbicide test; type: in vivo, Helianthus annuus; settings: for Plant response rating (0 = no effect, 100 = complete control), Sunflower: 62 g ai/ha; for Plant response rating (0 = no effect, 100 = complete control), Sunflower / Plant response rating, Sunflower: preemergence; for Plant response rating, Sunflower: 125 g ai/ha, scale 0 (no effect) to 100 (complete control), visual, 12 to 14 days
Outline: as §1

[9] = tested on: rice; assay: Test C flooded paddy test; type: in vivo, Oryza sativa; settings: for Plant response rating, Rice: 500 g ai/ha, visual rating after 12 to 14 days
Outline: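 Plants were grown to the 1- to 4-leaf stage (2–18 cm) and then treated postemergence, or grown to the 2-leaf stage for the flooded paddy test. They were held in a greenhouse for 12 to 14 days and then scored by eye against controls, where 0 is no effect and 100 is complete control.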

[10] = tested on: smallflower umbrella sedge; assay: Test C flooded paddy test; type: in vivo, Cyperus difformis; settings: for Plant response rating, Sedge, Umbrella: 500 g ai/ha, visual rating after 12 to 14 days
[11] = Postemergence, 500 g ai/ha, 0 to 100 scale, 0 no effect, 100 complete control
[12] = Postemergence, 2000 g ai/ha, 0 to 100 scale, 0 no effect, 100 complete control
[13] = Preemergence, 2000 g ai/ha, visual rating, 0 to 100 scale (0 no effect, 100 complete control)
[14] = preemergence, 500 g ai/ha, visual injury, 0 to 100 scale (0 no effect, 100 complete control)
[15] = 500 g ai/ha, visual rating 0-100, 0 no effect, 100 complete control
[16] = 125 g ai/ha, 0 to 100 scale, 0 is no effect, 100 is complete control
[17] = 125 g ai/ha, scale 0 (no effect) to 100 (complete control), visual, 12 to 14 days, preemergence
[18] = 250 g ai/ha, scale 0 to 100 (0 no effect, 100 complete control), visual, 12 to 14 days, preemergence
[19] = Postemergence, 250 g ai/ha, scale 0 to 100, 0 no effect, 100 complete control
[20] = postemergence, 125 g ai/ha, scale 0 to 100
[21] = postemergence, 62 g ai/ha, scale 0 to 100
[22] = 62 g ai/ha, scale 0 to 100 (0 no effect, 100 complete control)
[23] = 125 g ai/ha, scale 0 to 100 (0 no effect, 100 complete control)
[24] = 250 g ai/ha, scale of 0 to 100, 0 is no effect, 100 is complete control
[25] = scale 0 to 100 (0 no effect, 100 complete control)
[26] = Preemergence, scale 0 to 100, 0 no effect, 100 complete control

Compound: CCn1nc(C(C)(C)C)cc1C(=O)Nc1cccc(C#N)c1 [Compound 139]
- Velvetleaf plant response rating [1, 11]: 25
- Plant response rating, Velvetleaf [1, 12]: 40
- Velvetleaf plant response rating [1, 13]: 80
- Velvetleaf plant response rating [1, 14]: 50
- Plant response rating, Rice [2, 15]: 60
- Plant response rating, Rice [2, 16]: 30
- Plant response rating (0 = no effect, 100 = complete control), Crabgrass, Large ([3]; 62 g ai/ha, preemergence): 40
- Plant response rating, Crabgrass, Large [3, 17]: 100
- Plant response rating, Crabgrass, Large [3, 18]: 100
- Plant response rating, Crabgrass, Large [3, 19]: 0
- Plant response rating, Crabgrass, Large [3, 20]: 0
- Plant response rating, Crabgrass, Large [3, 21]: 0
- Plant response rating (0 = no effect, 100 = complete control), Cupgrass, Woolly ([4]; 62 g ai/ha, preemergence): 0
- Plant response rating, Cupgrass, Woolly [4, 17]: 10
- Plant response rating, Cupgrass, Woolly [4, 18]: 55
- Plant response rating, Cupgrass, Woolly [4, 19]: 5
- Plant response rating, Cupgrass, Woolly [4, 20]: 0
- Plant response rating, Cupgrass, Woolly [4, 21]: 0
- Plant response rating (0 = no effect, 100 = complete control), Foxtail, Giant ([5]; 62 g ai/ha, preemergence): 40
- Plant response rating, Foxtail, Giant [5, 17]: 80
- Plant response rating, Foxtail, Giant [5, 18]: 95
- Plant response rating, Foxtail, Giant [5, 19]: 10
- Plant response rating, Foxtail, Giant [5, 20]: 0
- Plant response rating, Foxtail, Giant [5, 21]: 0
- Plant response rating (0 = no effect, 100 = complete control), Lambsquarters ([6]; 62 g ai/ha, preemergence): 100
- Plant response rating, Lambsquarters [6, 17]: 100
- Plant response rating (0 = no effect, 100 = complete control), Pigweed ([7]; 62 g ai/ha, preemergence): 100
- Plant response rating, Pigweed [7, 17]: 100
- Plant response rating, Pigweed [7, 19]: 80
- Plant response rating, Pigweed [7, 20]: 65
- Plant response rating, Pigweed [7, 21]: 50
- Plant response rating (0 = no effect, 100 = complete control), Sunflower [8]: 0
- Plant response rating, Sunflower [8]: 10
- Rice plant response rating [9, 22]: 0
- Rice plant response rating [9, 23]: 35
- Rice plant response rating [9, 24]: 45
- Plant response rating, Rice [9, 25]: 60
- Sedge, Umbrella plant response rating [10, 22]: 75
- Sedge, Umbrella plant response rating [10, 23]: 80
- Sedge, Umbrella plant response rating [10, 24]: 85
- Plant response rating, Sedge, Umbrella [10, 25]: 85

Compound: CCn1nc(C(C)(C)C)cc1C(=O)Nc1cccc(C(=O)NC2CC2)n1 [Compound 146]
- Velvetleaf plant response rating [1, 11]: 20
- Plant response rating, Velvetleaf [1, 12]: 35
- Velvetleaf plant response rating [1, 13]: 25
- Velvetleaf plant response rating [1, 14]: 20
- Plant response rating, Rice [2, 15]: 40
- Plant response rating, Rice [2, 16]: 10
- Plant response rating (0 = no effect, 100 = complete control), Crabgrass, Large ([3]; 62 g ai/ha, preemergence): 20
- Crabgrass, Large plant response rating ([3]; Postemergence, scale 0 to 100): 85
- Plant response rating, Crabgrass, Large [3, 19]: 50
- Crabgrass, Large plant response rating [3, 26]: 70
- Plant response rating, Crabgrass, Large [3, 20]: 0
- Plant response rating, Crabgrass, Large [3, 21]: 0
- Plant response rating (0 = no effect, 100 = complete control), Cupgrass, Woolly ([4]; 62 g ai/ha, preemergence): 0
- Plant response rating, Cupgrass, Woolly [4, 17]: 0
- Plant response rating, Cupgrass, Woolly [4, 18]: 0
- Cupgrass, Woolly plant response rating ([4]; Postemergence, scale 0 to 100): 30
- Plant response rating, Cupgrass, Woolly [4, 19]: 30
- Cupgrass, Woolly plant response rating [4, 26]: 0
- Plant response rating, Cupgrass, Woolly [4, 20]: 10
- Plant response rating, Cupgrass, Woolly [4, 21]: 10
- Plant response rating (0 = no effect, 100 = complete control), Foxtail, Giant ([5]; 62 g ai/ha, preemergence): 0
- Plant response rating, Foxtail, Giant [5, 17]: 10
- Plant response rating, Foxtail, Giant [5, 18]: 60
- Foxtail, Giant plant response rating ([5]; Postemergence, scale 0 to 100): 10
- Plant response rating, Foxtail, Giant [5, 19]: 0
- Foxtail, Giant plant response rating [5, 26]: 80
- Plant response rating, Foxtail, Giant [5, 20]: 0
- Plant response rating, Foxtail, Giant [5, 21]: 0
- Plant response rating (0 = no effect, 100 = complete control), Lambsquarters ([6]; 62 g ai/ha, preemergence): 85
- Plant response rating, Lambsquarters [6, 17]: 90
- Lambsquarters plant response rating ([6]; Postemergence, scale 0 to 100): 100
- Plant response rating, Lambsquarters [6, 19]: 100
- Lambsquarters plant response rating [6, 26]: 100
- Plant response rating, Lambsquarters [6, 20]: 80
- Plant response rating, Lambsquarters [6, 21]: 40
- Plant response rating (0 = no effect, 100 = complete control), Pigweed ([7]; 62 g ai/ha, preemergence): 80
- Plant response rating, Pigweed [7, 17]: 95
- Pigweed plant response rating ([7]; Postemergence, scale 0 to 100): 100
- Plant response rating, Pigweed [7, 19]: 100
- Pigweed plant response rating [7, 26]: 100
- Plant response rating, Pigweed [7, 20]: 90
- Plant response rating, Pigweed [7, 21]: 80
- Plant response rating (0 = no effect, 100 = complete control), Sunflower [8]: 0
- Plant response rating, Sunflower [8]: 0
- Sunflower plant response rating ([8]; Preemergence, 500 g ai/ha, scale 0 to 100, 0 no effect, 100 complete control): 0
- Rice plant response rating [9, 22]: 0
- Rice plant response rating [9, 23]: 0
- Rice plant response rating [9, 24]: 0
- Plant response rating, Rice [9, 25]: 20
- Sedge, Umbrella plant response rating [10, 22]: 60
- Sedge, Umbrella plant response rating [10, 23]: 80
- Sedge, Umbrella plant response rating [10, 24]: 90
- Plant response rating, Sedge, Umbrella [10, 25]: 90
